Source: patent US8099262B2, “Estimation of clinical cut-offs” (priority 2004, dated 2012)

Legend:
Assay type in all cases: in vivo
HIV [1] = test system: HIV; parameters: Linear Regression Higher CO / Linear Regression Lower CO: unit not given here; settings: for VIROLOGIC RESPONSE Baseline FC for 80% REDUCTION of response (upper cutoff) / VIROLOGIC RESPONSE 20% REDUCTION (fold change, preliminary VirtualPhenotype Clinical Cutoff) / VIROLOGIC RESPONSE 80% REDUCTION (fold change, preliminary VirtualPhenotype Clinical Cutoff): preliminary linear regression analysis; for VIROLOGIC RESPONSE 20% REDUCTION (fold change, preliminary VirtualPhenotype Clinical Cutoff) / VIROLOGIC RESPONSE 80% REDUCTION (fold change, preliminary VirtualPhenotype Clinical Cutoff): virologic response at 8 weeks
Excerpt: Databases of studies for patients with tenofovir containing regimens and consisting of patient baseline demographic characteristics, clinical outcome results with viral load and resistance data (Fold change), were retrieved and remapped according to a common structure allowing a meta-analysis. The structure consisted of baseline sequence, viral load data set, viral load measurements and sampling dates (for example viral load within 3 months of starting new regimen and viral load assessment 8 and/or 24 weeks after beginning new regimen), CD4+ data set which contains CD4+ counts and sampling dates, resistance data set containing the fold changes to different antivirals and sampling dates; patient data set with patient information such as age, gender, race, treatment history; treatment data set with drug regimens, start and stop dates, doses, formulations, frequency of intake, regimen changes after resistance tests. The structure of such a clinical data base can be seen in FIG. 1a.
The viral load response data includes censored (<400 copies/ml) values. Parameters of the underlying uncensored distribution were estimated by maximum likelihood estimation in SAS (proc lifereg). The viral load response data are corrected for baseline viral load and cPSS.
(§1) The models applied were linear regression, logistic regression, and a classification tree. These models also took into account effects of the concomitant HIV drugs (PSS), baseline viral load (Baseline Log(V1)i) and, optionally, treatment history in order to avoid bias introduced by imbalances of important characteristics. From the models, a prediction of clinical outcome could be made at different levels of the baseline fold change resistance.
In the linear regression model, the proposed equation was the following: LogVL dropi=β0+β1*Baseline Log(V1)i+β2*PSSi+β3*(1/FC)i+ξi where i represented the patient, β0 the intercept, β1, β2 and β3 coefficients indicated the increase in log viral load drop per unit increase of respectively the baseline log VL, the number of sensitive drugs in the background regimen and the inverse of the baseline fold change. ξi was a random error term indicating the deviation of the patient from the value predicted by the model. Interactions between all the factors were evaluated and other baseline characteristics, i.e treatment history, were added if relevant.
When viral load results under the detection limits are obtained, biases could be introduced if the detection limit values are considered when calculating viral load drops and using those in the linear regression model. To avoid this, censoring needed to be taken into account and therefore the PROC LIFEREG facility in the SAS package was employed.
Clinical responses were predicted in the models developed in previous step 2. […] In order to determine the fold changes at which clinically relevant diminished clinical responses can be observed, three definitions of clinical cut-offs were considered:
(§2) The maximum effect was defined as the treatment effect at fold change 1, and the minimum effect was defined as the treatment effect at a very high fold change (i.e. when the curve reached a plateau). The effect range was then the difference between the maximum effect and the minimum effect.

HIV [2] = test system: HIV; parameters: key to Modelled Lower Cutoff & Confidence Interval / Modelled Upper Cutoff & Confidence Interval: fold change (FC) matching VL drop at 20% and 80% loss of activity; settings: for Modelled Lower Cutoff & Confidence Interval / Modelled Upper Cutoff & Confidence Interval: preferred embodiment of linear regression
Excerpt: In a preferred embodiment of the linear regression model, more factors are included in order to obtain a more refined prediction of viral load response. These factors include for example a sensitivity score per drug class in addition to the overall sensitivity score of the background treatment (cPSS), previous exposure to the drug (naïve (Yes/No), naïve to PIs, naïve to NRTI's, etc. . . . ). Furthermore, in the preferred embodiment, the fold change is transformed before inserting the figures into the model. The transformation to the fold change comprises a power-transformation ranging from FC^−3 to FC^1. In addition, a quadratic term in cPSS is preferably added.
The NRTI[naïve] value represents whether the patient is naïve to nucleoside RT inhibitors. If yes, value=1, if no, value=0. The PSS[NRTI} represents the phenotypic sensitivity score for NRTIs, i.e the number of active NRTIs in the background regimen for the patient.
Stage 3: Determine Fold change equivalent to VL drop at 20% and 80% loss of activity by inserting values for VL drop into the above equation and calculating FC. […]

HIV [3] = settings: for Test Data BCO Odds Ratio / Validation Data BCO Odds Ratio: biological cutoffs; for Test Data CCO Odds Ratio / Validation Data CCO Odds Ratio: clinical cutoffs
Excerpt: Further factors which may be taken into account when validating the model are the odds ratios determined using clinical cutoffs compared to those determined using biological cutoffs. These ratios represent the odds of being a responder in the group that is labeled resistant by the cutoffs divided by the odds of being a responder in the group that is labeled sensitive by the cutoffs. In this way it is possible to evaluate how well the cutoffs perform on a drug by drug basis. The further away that the odds ratio is from 1, the stronger the correlation between the resistance class and clinical outcome. The odds ratio as specified above yield numbers smaller than 1 as the odds of being a responder should be smaller in the higher resistance class. Put another way, the probability of response will decrease as the resistance increases. Additionally, if the odds ratio for the CCO is smaller than the odds ratio for the BCO, it can be concluded that the CCO is stronger correlated with clinical outcome and therefore gives a better prediction than the BCO.
A logistic regression model may be used to determine the odds ratio. The model used is the same as the logistic regression model described above except that the fold change in the model is replaced by the resistance class. The coefficient for the resistance class that is obtained from the model is the log (odds ratio). The advantage of using this model is that the odds ratio estimates can be adjusted for the baseline viral load and the cPSS score of the background regimen.
The columns headed CCO Odds Ratio and BCO Odds Ratio represent the odds of being a responder in the group that is labeled resistance by the cutoffs divided by the odds of being a responder in the group that is labeled sensitive by the cutoffs. For example, if there are four non-responders and one responder in the resistant group, and four responders and two non-responders in the sensitive group, the odds of being a responder in the resistant group is 1:4=0.25 and the odds of being a responder in the sensitive group is 4:2=2. […] The further away that the odds ratio is from 1, the stronger the correlation between the resistance class and clinical outcome.
The separation in groups (resistance/sensitive) can be done based on clinical cutoffs or biological cutoffs. This means that odds ratios based on clinical cutoffs (CCO) and odds ratios based on biological cutoffs (BCO) can be compared. If the odds ratio for the CCO is smaller than the odds ratio for the BCO, it can be concluded that the CCO gives a better prediction than the BCO.
In practice, a logistic regression model is used to determine the odds ratio. The model used is similar to logistic regression model described earlier except that the fold change in the model is replaced by the resistance class. The coefficient for the resistance class that is obtained from the model is the log (odds ratio). The advantage of using this model is that the odds ratio estimates can be adjusted for the baseline viral load and the cPSS score of the background regimen. […] In this case, a larger odds ratio indicates a stronger correlation with clinical outcome.

HIV [4] = experiment: Logistic regression model of probability of success/failure as a function of baseline fold change resistance (clinical cut-offs); settings: Definition 2
Excerpt: In such a method, Prob of success is preferably calculated by performing a logistic regression analysis using data from a clinical response dataset, wherein Prob of success is modelled according to the following equation: […]
as §1, with “The clinical outcome results (drop in viral load and response rate) were modelled as a function of baseline fold change (FC) as determined by virtual phenotype (see WO01/79540 and WO02/33402; also http://www.vircolab.com). The models” for “The models”
In the logistic regression, the proposed equation was the following: […]
However, by binning the viral load into successes and failures, part of the information of the continuous variable viral load is lost. Estimates are also corrected for covariates as for linear regression.
as §2
The lower and higher cutoffs are defined as the fold change associated with an expected 20% and 80% decrease respectively of the reference activity of the drug within the regimen.

[5] = Definition 1, log baseline viral load of 5, no active drugs in addition
[6] = Log(BaselineVL)=4, cPSS=2, PSS[NRTI]=1, NRTI[naïve]=0
[7] = definition 2, Log(BaselineVL)=4, reference fold changes 0.9 and 3, cPSS=2, PSS[NRTI]=1, NRTI[naïve]=0
[8] = Definition 2, Overall (whole population)
[9] = Subgroup 1: PSS = 2, baseline Log (VL) = 4
[10] = Subgroup 3: PSS = 2, baseline Log (VL) = 5
[11] = log baseline VL/background PSS of 5/0

## CC(C)CN(C[C@@H](O)[C@H](Cc1ccccc1)NC(=O)O[C@H]1CCOC1)S(=O)(=O)c1ccc(N)cc1 [APV, amprenavir]
HIV [1]; definition 2, after 8 weeks
  clinical cutoff for 80% reduced response (upper clinical cutoff): 3.4

## Cc1cn([C@H]2C=C[C@@H](CO)O2)c(=O)[nH]c1=O [D4T, stavudine]
HIV [1]; [5]
  fold change at predicted viral load drop of −0.2 logs: 4.0
  fold change at predicted viral load drop of −0.6 logs: 2.6
HIV [1]; Definition 1, log baseline viral load of 5, two active drugs in addition
  predicted viral load drop for any fold change: more than 0.6 log copies/mL
HIV [2]; [6]
  Fold change equivalent to VL drop at 20% loss of activity: 1.08
  Fold change equivalent to VL drop at 80% loss of activity: 2.18
  VL drop when drug has lost 20% of its activity: −2.76
  VL drop when drug has lost 80% of its activity: −2.21
HIV [2]; [7]
  modelled lower clinical cutoff (CCO): 1.1
  modelled upper clinical cutoff (CCO): 2.2
HIV [2]; lower reference fold change=0.9, Log(BaselineVL)=4, cPSS=2, PSS[NRTI]=1, NRTI[naïve]=0
  VL drop at the lower reference FC (drug is fully active): −2.94
HIV [2]; upper reference fold change=3, Log(BaselineVL)=4, cPSS=2, PSS[NRTI]=1, NRTI[naïve]=0
  VL drop at the upper reference FC (minimal activity of the drug): −2.03

## CC(C)(C)NC(=O)[C@@H]1CN(Cc2cccnc2)CCN1C[C@@H](O)C[C@@H](Cc1ccccc1)C(=O)N[C@H]1c2ccccc2C[C@H]1O [IDV, indinavir]
HIV [1]; definition 2, after 8 weeks
  clinical cutoff for 80% reduced response (upper clinical cutoff): 3.4

## Cc1ccnc2c1NC(=O)c1cccnc1N2C1CC1 [NVP, neviripine]
HIV [2]
  Modelled Lower Cutoff & Confidence Interval: 1.5
  Modelled Upper Cutoff & Confidence Interval: 3.2
HIV [3]
  Test Data BCO Odds Ratio: 0.290
  Test Data CCO Odds Ratio: 0.282
  Validation Data BCO Odds Ratio: 0.054
  Validation Data CCO Odds Ratio: 0.054

## Indinavir/r [IDV/r]
HIV [1]; definition 2
  VIROLOGIC RESPONSE Baseline FC for 80% REDUCTION of response (upper cutoff): 25
HIV [1]
  VIROLOGIC RESPONSE 20% REDUCTION (fold change, preliminary VirtualPhenotype Clinical Cutoff): 3.5
  VIROLOGIC RESPONSE 80% REDUCTION (fold change, preliminary VirtualPhenotype Clinical Cutoff): 25
HIV [2]
  Modelled Lower Cutoff & Confidence Interval: 4.1
  Modelled Upper Cutoff & Confidence Interval: 21.2
HIV [3]
  Test Data BCO Odds Ratio: 0.122
  Test Data CCO Odds Ratio: 0.027
  Validation Data BCO Odds Ratio: 0.038
  Validation Data CCO Odds Ratio: 0.012

## Lopinavir/r [LPV/r]
HIV [1]; [8]
  Linear Regression Higher CO: 69
  Linear Regression Lower CO: 8
HIV [1]; definition 2
  VIROLOGIC RESPONSE Baseline FC for 80% REDUCTION of response (upper cutoff): 56
HIV [1]
  VIROLOGIC RESPONSE 20% REDUCTION (fold change, preliminary VirtualPhenotype Clinical Cutoff): 6.9
  VIROLOGIC RESPONSE 80% REDUCTION (fold change, preliminary VirtualPhenotype Clinical Cutoff): 56
HIV [4]; [9]
  Logistic Regression Higher CO: 64
  Logistic Regression Lower CO: 11
HIV [4]; [10]
  Logistic Regression Higher CO: 58
  Logistic Regression Lower CO: 9
HIV [4]; [11]
  lower cutoff, logistic regression: 10
  upper cutoff, logistic regression: 60
HIV [2]
  Modelled Lower Cutoff & Confidence Interval: 10.3
  Modelled Upper Cutoff & Confidence Interval: 61.6
HIV [3]
  Test Data BCO Odds Ratio: 0.240
  Test Data CCO Odds Ratio: 0.074
  Validation Data BCO Odds Ratio: 0.277
  Validation Data CCO Odds Ratio: 0.002

## amprenavir/r [APV/r]
HIV [1]; definition 2, after 8 weeks
  clinical cutoff for 20% reduced response (lower clinical cutoff): 1.5
  clinical cutoff for 80% reduced response (upper clinical cutoff): 6.8
HIV [1]; definition 2
  VIROLOGIC RESPONSE Baseline FC for 80% REDUCTION of response (upper cutoff): 6.8
HIV [1]
  VIROLOGIC RESPONSE 20% REDUCTION (fold change, preliminary VirtualPhenotype Clinical Cutoff): 1.5
  VIROLOGIC RESPONSE 80% REDUCTION (fold change, preliminary VirtualPhenotype Clinical Cutoff): 6.8
HIV [2]
  Modelled Lower Cutoff & Confidence Interval: 0.9
  Modelled Upper Cutoff & Confidence Interval: 6.5
HIV [3]
  Test Data BCO Odds Ratio: 0.053
  Test Data CCO Odds Ratio: 0.005
